From patent US20120318750A1, “METHODS AND COMPOSITIONS FOR COMPLEX BINDING OF METAL IONS” (ChemseQ International AB, priority 2009, published 2012)

Columns and labels:
[1] = Flotation of copper ions with sequestering agent in a flotation cell, metal analysis of foam; settings: 1 mg copper as copper sulphate, sequestering agent:metal 1.2:1, pH 5.5, flotation approx. 30 min
[2] = Flotation of manganese ions with sequestering agent in a flotation cell, metal analysis of foam; settings: 1 mg manganese as manganese sulphate, sequestering agent:metal 1.2:1, pH 5.5, flotation approx. 30 min
Text: In order to investigate the separability of a sequestering agent according to the invention a small flotation cell was used. This flotation cell has a volume of approximately 1.6 l, a height of 315 mm and an inner diameter of 80 mm. Compressed air used to form the foam is led through a porous sintered glass filter of diameter 60 mm with a nominal porosity of 10-16 μm (“porosity 4”) mounted at the bottom of the flotation cell. At the top of the flotation cell a cylinder of an inner diameter of 30 mm and a height of 415 mm, with an outlet placed at 72 mm from the bottom, is mounted. The outlet is used to collect the foam and thereby the chelate according to the invention. At the top of the latter cylinder an adjustable valve is mounted to be able to better control the foaming and to direct the foam to the outlet.
was prepared from 2-aminoethanol, tert-butyl bromoacetate and tert-butyl 2-aminotetradecanoate as main ingredients using conventional techniques and was therafter mixed in 500 ml deionised water with 1 mg of manganese in the form of manganese sulphate (in a molar ratio of 1.2:1=sequestering agent: manganese sulphate) and a flotation agent (N,N-dimethyldodecylamine N-oxide, in a molar ratio of 10:1=flotation agent:sequestering agent).
The pH-value of the solution was adjusted to pH 5.5 with 0.1 M sodium hydroxide solution or 0.1 M hydrogen chloride solution. […]

[3] = Precipitation/recovery from a copper(II) sulfate solution by electrolysis, then acidification (Experimental Example 6); settings: electrolysis pH 12, 50 min, 300-350 mA
Procedure: The recovery of 2-dodecyl-3-carboxymethyl-3-azapentane diacid was performed in a two-step procedure.
(§1) In the first stage metal ions was removed from the solution by electrolysis at a specified pH and current intensity: The equipment to perform the electrolysis consisted of a Manson EP-601 rectifier and two platinum electrodes in form of a spring (anode) and a basket (cathode).
To a solution of 2-dodecyl-3-carboxymethyl-3-azapentane diacid and copper in the form of copper(II) sulfate (30 ml, in a molar ratio of 1.2:1=sequestering agent: copper(II) sulfate, [sequestrent]=10.5 mM, [Cu^2+]=655 ppm) in a beaker was sodium sulphate (corresponding to 50 mg/l) added, in order to receive wished current intensity. Solutions of 1 M aqueous sodium hydroxide was added to adjust the pH to 12. The total volume of the solution was 150 ml. The electrolysis was performed during 50 min. at a current intensity of 300-350 mA.
In the second step the electrolysis solution was acidified with 1 M aqueous hydrogen chloride to pH=2.4. The precipitated material was removed by filtration (glass filter—Schott u.Gen Mainz 1G2) and dried in a vacuum chamber at 0.8 mbar for 24 hours.
(§2) 99.6 mg precipitate was obtained. Organic analyses were made with the aid of an ESI-MS (recorded on a Micromass Quattro II mass spectrometer coupled with a Harvard Apparatus Pump 11 syringe pump directly into the ESI source of the mass spectrometer at a flow rate of 6 μl/min. The data was processed using MassLynx 4.0 software) in positive and negative mode, and NMR with a Varian 500 instrument. The precipitate contained exclusively of 2-dodecyl-3-carboxymethyl-3-azapentane diacid.
Metal analyses were made with the aid of a Perkin-Elmer AA300 atomic absorption spectrometer.

[4] = Solubility of sequestering agent in a copper(II) chloride solution on stepwise acidification; format: physicochemical; settings: 5.66 mM sequestrent, 300 ppm copper, room temperature
Procedure: A stock solution of 4-dodecyl-3,6,9-tri(carboxymethyl)-3,6,9-triazaundecane diacid and copper in the form of copper(II) chloride (20 ml, in a molar ratio of 1.2:1=sequestering agent: copper(II) chloride, [Cu^2+]=900 ppm, pH=4.5) was diluted with milliQ-water to a total volume of 60 ml in a beaker, corresponding to a solution with an initial sequestrent and copper concentration of 5.66 mM and 300 ppm, respectively. To this solution 2 M aqueous hydrogen chloride was added stepwise, under magnetical stirring at room temperature, to follow the solubility behavior of 4-dodecyl-3,6,9-tri(carboxymethyl)-3,6,9-triazaundecane diacid.

[5] = Precipitation/recovery of sequestering agent from a copper(II) chloride solution by acidification to pH 1.8; settings: acidified to pH=1.8, 5.66 mM sequestrent, 300 ppm copper
Procedure: A stock solution of 4-dodecyl-3,6,9-tri(carboxymethyl)-3,6,9-triazaundecane diacid and copper in the form of copper(II) chloride (20 ml, in a molar ratio of 1.2:1=sequestering agent: copper(II) chloride, [Cu^2+]=900 ppm, pH=4.5) was diluted with milliQ-water to a total volume of 60 ml in a beaker, corresponding to a solution with an initial sequestrent- and copper concentration of 5.66 mM and 300 ppm, respectively. To this solution 2 M aqueous hydrogen chloride was added under magnetical stirring at room temperature to pH=1.8. A light blue precipitate was removed by filtration (P3 glass filter) leaving a colourless transparent filtrate. The light blue precipitate was dried in a vacuum chamber at 0.8 mbar for 19 hours resulting in a light blue solid.
as §2, with “270” for “99.6”, “mode.” for “mode, and NMR with a Varian 500 instrument. The precipitate contained exclusively of 2-dodecyl-3-carboxymethyl-3-azapentane diacid.”
The precipitate contained exclusively of 4-dodecyl-3,6,9-tri(carboxymethyl)-3,6,9-triazaundecane diacid and complexed sequestering agent. […] Metal analyses were made with the aid of a Perkin-Elmer AA300 atomic absorption spectrometer. […]

[6] = Precipitation/recovery from a copper(II) chloride solution by electrolysis with cation exchange membrane, then acidification (Experimental Example 7); settings: electrolysis starting pH 4.1, 60 min, 250-300 mA
Procedure: The recovery of 4-dodecyl-3,6,9-tri(carboxymethyl)-3,6,9-triazaundecane diacid was performed in a two-step procedure.
as §1, with “intensity.” for “intensity:”, “EP-60.1” for “EP-601”, “(cathode). The electrodes were separated with a cationic exchange membrane (CMI-7000 Cation exchange membranes—Membranes International INC.)” for “(cathode).”
To a solution of 4-dodecyl-3,6,9-tri(carboxymethyl)-3,6,9-triazaundecane diacid and copper in the form of copper(II) chloride (30 ml, in a molar ratio of 1.2:1=sequestering agent: copper(II) chloride, [Cu^2+]=900 ppm, pH=4.5) in a beaker was sodium sulphate (corresponding to 0.1 M), in order to receive wished current intensity. The pH of the starting solution was 4.1. The total volume of the solution was 300 ml. The electrolysis was performed during 60 min. at a current intensity of 250-300 mA.
In the second step the electrolysis solution was acidified with 1 M aqueous hydrogen chloride to pH=2.4. The precipitated material was removed by filtration (glass filter—Schott u.Gen Mainz 1G2) and dried in a vacuum chamber at 0.8 mbar for 22 hours.
as §2, with “198.7” for “99.6”, “μL/min.” for “μl/min.”, “4-dodecyl-3,6,9-tri(carboxymethyl)-3,6,9-triazaundecane” for “2-dodecyl-3-carboxymethyl-3-azapentane”, “diacid. Metal analyses were made with the aid of a Perkin-Elmer AA300 atomic absorption spectrometer.” for “diacid.”

| SMILES | added copper found in the foam [1] | added manganese found in the foam [2] | copper found on the cathode [3] | copper found in the filtrate ([3]; then acidified to pH=2.4) | copper found in the precipitate ([3]; then acidified to pH=2.4) | solubility observation ([4]; pH<0.5) | solubility observation ([4]; pH=2.8-0.5) | solubility observation ([4]; pH=4.5-2.8) | copper found in the filtrate [5] | copper found in the precipitate [5] | copper found on the cathode [6] | copper found in the filtrate ([6]; then acidified to pH=2.4) | copper found in the precipitate ([6]; then acidified to pH=2.4) |
| --- | --- | --- | --- | --- | --- | --- | --- | --- | --- | --- | --- | --- | --- |
| CCCCCCCCCCCCC(C(=O)O)N(CCN(CC(=O)O)CC(=O)O)CC(=O)O (stereo not drawn) [2-dodecyl-3,6-di(carboxymethyl)-3,6-diazaoctane diacid] | ~65% | About 35% | – | – | – | – | – | – | – | – | – | – | – |
| CCCCCCCCCCCCC(C(=O)O)N(CC(=O)O)CC(=O)O (stereo not drawn) [2-dodecyl-3-carboxymethyl-3-azapentane diacid] | ~70% | About 10% | 99.4% | 0.1% | 0.5% | – | – | – | – | – | – | – | – |
| CCCCCCCCCCCCC(CN(CCN(CC(=O)O)CC(=O)O)CC(=O)O)N(CC(=O)O)CC(=O)O (stereo not drawn) [4-dodecyl-3,6,9-tri(carboxymethyl)-3,6,9-triazaundecane diacid] | – | – | – | – | – | A clear blue aqueous solution | Precipitated material is observed | A clear blue aqueous solution | 1% | 99% | 99.8% | 0.1% | 0.1% |
